Source: patent US20120302573A1, “METHODS OF INHIBITING PRO MATRIX METALLOPROTEINASE ACTIVATION” (priority 2011, published 2012)
Structures can show the parent of a compound that is named as a salt.

Legend:
[1] = molecular target: T1, proMMP9(67-444;ΔFnII) (SEQ ID NO:5) (Homo sapiens, UniProt P14780, DEL216-390); experiment: ThermoFluor binding assay with proMMP9(67-444;ΔFnII)
T1 construct: amino acid pairs including: 29-215/391-444, 67-215/391-444, and 20-215/391-445, respectively; start methionine (N); made in house; host or cells: E. coli BL21(DE3) RIL
T1 sequence (P14780 with tags, fused parts or gaps DEL216-390): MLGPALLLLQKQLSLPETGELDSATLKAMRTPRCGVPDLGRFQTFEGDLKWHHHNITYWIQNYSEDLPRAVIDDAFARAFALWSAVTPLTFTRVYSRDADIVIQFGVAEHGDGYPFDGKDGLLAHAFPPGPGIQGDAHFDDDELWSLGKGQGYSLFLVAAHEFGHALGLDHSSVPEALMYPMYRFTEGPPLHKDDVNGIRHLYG
Protocol: (§1) The experiments were carried out using instruments available from Johnson & Johnson Pharmaceutical Research & Development, LLC. TF dye used in all experiments was […] (1,8-ANS) (Invitrogen: A-47).
(§2) Columns 12 and 24 were used as DMSO reference and contained no compound. […] Following compound dispense, protein and dye solutions were added to achieve the final assay volume of 3 μL.
(§3) Assay plates were robotically loaded onto a thermostatically controlled PCR-type thermal block and then heated from 40 to 90° C. at a ramp-rate of 1° C./min for all experiments. Fluorescence was measured by continuous illumination with UV light (Hamamatsu LC6) supplied via fiber optics and filtered through a band-pass filter (380-400 nm; >6 OD cutoff). Fluorescence emission of the entire 384-well plate was detected by measuring light intensity using a CCD camera (Sensys, Roper Scientific) filtered to detect 500±25 nm, resulting in simultaneous and independent readings of all 384 wells.
(§4) Thermodynamic parameters necessary for fitting compound binding for each proMMP were estimated by differential scanning calorimetry (DSC) and from ThermoFluor® data. The heat capacity of unfolding for each protein was estimated from the molecular weight and from ThermoFluor® dosing data.
The protein sample preparations had to include a desalting buffer exchange step via a PD-10 gravity column (GE Healthcare).

[2] = molecular target: T2, proMMP9(20-445;ΔFnII) (SEQ ID NO:6) (Homo sapiens, UniProt P14780, DEL216-390); experiment: ThermoFluor binding assay with proMMP9(20-445;ΔFnII)
T2 construct: amino acid pairs including: 29-215/391-444, 67-215/391-444, and 20-215/391-445, respectively; start methionine (N); made in house; host or cells: E. coli BL21(DE3) RIL
T2 sequence (P14780 with tags, fused parts or gaps DEL216-390): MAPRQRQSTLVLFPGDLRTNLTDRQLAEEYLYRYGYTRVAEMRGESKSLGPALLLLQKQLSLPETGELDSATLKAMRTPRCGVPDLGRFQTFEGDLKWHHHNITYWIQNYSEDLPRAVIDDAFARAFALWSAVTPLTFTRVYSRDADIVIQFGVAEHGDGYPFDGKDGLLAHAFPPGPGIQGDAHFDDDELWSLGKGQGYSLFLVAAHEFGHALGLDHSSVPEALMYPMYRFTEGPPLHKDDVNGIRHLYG
Protocol: as §1, §2, §3, §4
The protein sample preparations included a desalting buffer exchange step via a PD-10 gravity column (GE Healthcare).

[3] = molecular target: full-length proMMP9(1-707) activation by catalytic MMP3 (Homo sapiens, UniProt P14780, R574P); experiment: ProMMP9/MMP3 DQ Gelatin Activation Assay;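 also: readout is fluorescence of quenched fluorescein gelatin cut by activated MMP9, 30 min activation at 37 °C, inhibition relative to DMSO-only controls with EDTA as blank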; format: biochemical; parameters: made in house; host or cells: COS-1 (proMMP9); E. coli (MMP3); details: proMMP9 from COS-1 cells; read-out: ProMMP9/MMP3 DQ gel, IC50
Chain of full-length proMMP9(1-707) activation by catalytic MMP3 (P14780 20-707 R574P): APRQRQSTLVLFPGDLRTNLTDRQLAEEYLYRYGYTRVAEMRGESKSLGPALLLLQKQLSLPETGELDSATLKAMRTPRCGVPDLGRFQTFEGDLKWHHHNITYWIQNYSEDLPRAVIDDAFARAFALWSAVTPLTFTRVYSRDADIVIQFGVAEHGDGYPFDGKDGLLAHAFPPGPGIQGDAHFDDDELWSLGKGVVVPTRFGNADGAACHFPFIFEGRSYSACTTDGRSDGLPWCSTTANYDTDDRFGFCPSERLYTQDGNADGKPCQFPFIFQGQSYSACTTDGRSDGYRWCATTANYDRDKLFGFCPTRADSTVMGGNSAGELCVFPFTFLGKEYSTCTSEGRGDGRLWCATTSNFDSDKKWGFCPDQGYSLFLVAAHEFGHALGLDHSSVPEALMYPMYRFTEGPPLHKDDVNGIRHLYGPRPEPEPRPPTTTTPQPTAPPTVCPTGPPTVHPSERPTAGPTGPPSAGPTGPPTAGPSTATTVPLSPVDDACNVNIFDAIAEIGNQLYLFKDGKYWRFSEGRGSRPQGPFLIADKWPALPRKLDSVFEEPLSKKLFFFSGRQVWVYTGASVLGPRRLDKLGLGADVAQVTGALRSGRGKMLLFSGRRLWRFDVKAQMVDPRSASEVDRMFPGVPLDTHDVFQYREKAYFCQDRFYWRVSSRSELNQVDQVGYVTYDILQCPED

For `Cc1nc(C)c(-c2csc(Nc3cccc(C(N)=O)c3)n2)s1` [Example 9, 3-(2′,4′-Dimethyl-[4,5′]bithiazolyl-2-ylamino)-benzamide], the Kd [1] was > 81 µM and the Kd [2] was 19 µM.
`CC(=O)Nc1nc(C)c(-c2csc(Nc3ccccc3OCC3CC3)n2)s1` [Example 19, N-[2-(2-Cyclopropylmethoxy-phenylamino)-4′-methyl-[4,5′]bithiazolyl-2′-yl]-acetamide.TFA] was tested, and the Kd [1] was 3.86 µM and the Kd [2] was > 52 µM.
For `COc1ccc(Nc2nc(-c3sc(NC(C)=O)nc3C)cs2)c(OC)c1` [Example 23, N-[2-(2,4-Dimethoxy-phenylamino)-4′-methyl-[4,5′]bithiazolyl-2′-yl]-acetamide.TFA], the Kd [1] was 5.53 µM, the IC50 [3] was 26.2 µM and the Kd [2] was > 35 µM.
For `c1cncc(-c2csc(Nc3ccccc3OCc3cccs3)n2)c1` [Example 24, (4-Pyridin-3-yl-thiazol-2-yl)-[2-(thiophen-2-ylmethoxy)-phenyl]-amine.TFA], the Kd [1] was > 38 µM, the IC50 [3] was > 20 µM and the Kd [2] was 0.37 µM.
With `CCCOc1ccccc1Nc1nc(-c2cccnc2)cs1` [Example 25, (2-Propoxy-phenyl)-(4-pyridin-3-yl-thiazol-2-yl)-amine] the Kd [1] was 16.3 µM, the IC50 [3] was > 20 µM and the Kd [2] was 12.5 µM.
In the case of `COc1ccccc1Nc1nc(-c2cnccc2C)cs1` [Example 29, (2-Methoxy-phenyl)-[4-(4-methyl-pyridin-3-yl)-thiazol-2-yl]-amine.TFA], the IC50 [3] is reported as 14.4 µM.
`CC(=O)Nc1nc(C)c(-c2csc(Nc3ccccc3OC(F)(F)F)n2)s1` [Example 31, N-[4′-Methyl-2-(2-trifluoromethoxy-phenylamino)-[4,5′]bithiazolyl-2′-yl]-acetamide.HCl] gave a Kd [1] of 0.645 µM, an IC50 [3] of 3.3 µM and a Kd [2] of 3.34 µM.
In the case of `CC(=O)Nc1nc(C)c(-c2csc(Nc3ccccc3C(F)(F)F)n2)s1` [Example 32, N-[4′-Methyl-2-(2-trifluoromethyl-phenylamino)-[4,5′]bithiazolyl-2′-yl]-acetamide.TFA], the Kd [1] is reported as 9.06 µM, the IC50 [3] is reported as > 20 µM and the Kd [2] is reported as > 9.2 µM.
Work on `CSc1ccccc1Nc1nc(-c2sc(NC(C)=O)nc2C)cs1` [Example 33, N-[4′-Methyl-2-(2-methylsulfanyl-phenylamino)-[4,5′]bithiazolyl-2′-yl]-acetamide.HCl] yielded a Kd [1] of 0.695 µM, an IC50 [3] of 2.9 µM and a Kd [2] of 3.75 µM.
Work on `CNc1nc(C)c(-c2csc(Nc3ccccc3OC)n2)s1` [Example 35, N^2-(2-Methoxy-phenyl)-4′,N^2′-dimethyl-[4,5′]bithiazolyl-2,2′-diamine] yielded a Kd [1] of 3.92 µM, an IC50 [3] of 7 µM and a Kd [2] of 10.3 µM.
For `COc1ccccc1Nc1nc(-c2sc(N(C)C(C)=O)nc2C)cs1` [Example 36, N-[2-(2-Methoxy-phenylamino)-4′-methyl-[4,5′]bithiazolyl-2′-yl]-N-methyl-acetamide.TFA], the Kd [1] was > 11 µM, the IC50 [3] was 1.7 µM and the Kd [2] was > 11 µM.
With `CCNc1nc(C)c(-c2csc(Nc3ccccc3OC)n2)s1` [Example 38] the Kd [1] was > 8.3 µM, the IC50 [3] was 9.6 µM and the Kd [2] was > 8.3 µM.
With `CC(=O)Nc1nc(C)c(-c2csc(Nc3ccccc3Cl)n2)s1` [Example 39, N-[2-(2-Chloro-phenylamino)-4′-methyl-[4,5′]bithiazolyl-2′-yl]-acetamide.HCl] the Kd [1] was 2.49 µM, the IC50 [3] was 17.1 µM and the Kd [2] was 6.35 µM.
With `CC(=O)Nc1nc(C)c(-c2csc(Nc3ccccc3F)n2)s1` [Example 40, N-[2-(2-Fluoro-phenylamino)-4′-methyl-[4,5′]bithiazolyl-2′-yl]acetamide.TFA] the Kd [1] was 16.3 µM, the IC50 [3] was > 20 µM and the Kd [2] was > 18 µM.
`COc1ccc(Nc2nc(-c3sc(N)nc3C)cs2)c(OC)c1` [Example 48, N^2-(2,4-Dimethoxy-phenyl)-4′-methyl-[4,5′]bithiazolyl-2,2′-diamine] showed a Kd [1] of 4.73 µM and a Kd [2] of 17.5 µM.
With `COc1ccccc1Nc1nc(C2(C)CC3(CC(C)OC3=O)C(=O)O2)cs1` (stereo not shown) [Example 49, 3-[2-(2-Methoxy-phenylamino)-thiazol-4-yl]-3,8-dimethyl-2,7-dioxa-spiro[4.4]nonane-1,6-dione] the Kd [1] was 8.7 µM, the IC50 [3] was 5.7 µM and the Kd [2] was > 17 µM.
In the case of `COc1ccccc1Nc1nc(-c2sc(NC(=O)c3ccccc3)nc2C)cs1` [Example 50, N-[2-(2-Methoxy-phenylamino)-4′-methyl-[4,5′]bithiazolyl-2′-yl]-benzamide], the Kd [1] is reported as 4.05 µM, the IC50 [3] is reported as 21.2 µM and the Kd [2] is reported as > 14 µM.
For `COc1ccc(OC)c(Nc2nc(-c3c(C)nc4ccccn34)cs2)c1` [Example 51, (2,5-Dimethoxy-phenyl)-[4-(2-methyl-imidazo[1,2-a]pyridin-3-yl)-thiazol-2-yl]-amine], the Kd [1] was > 15 µM, the IC50 [3] was 10.1 µM and the Kd [2] was > 16 µM.
In the case of `COc1ccc(OC)c(Nc2nc(-c3cccnc3)cs2)c1` [Example 54, (2,5-Dimethoxy-phenyl)-(4-pyridin-3-yl-thiazol-2-yl)-amine], the Kd [1] is reported as 17.9 µM, the IC50 [3] is reported as 16.1 µM and the Kd [2] is reported as > 65 µM.
With `COc1ccc(Cl)cc1Nc1nc(-c2cccnc2)cs1` [Example 56, (5-Chloro-2-methoxy-phenyl)-(4-pyridin-3-yl-thiazol-2-yl)-amine] the Kd [1] was 14.6 µM, the IC50 [3] was > 20 µM and the Kd [2] was > 70 µM.
For `CC(=O)Nc1nc(C)c(-c2csc(Nc3ccccc3C)n2)s1` [Example 63, N-(4′-Methyl-2-o-tolylamino-[4,5′]bithiazolyl-2′-yl)-acetamide], the Kd [1] was 5.13 µM, the IC50 [3] was 28.2 µM and the Kd [2] was 19.6 µM.
`CCOc1ccccc1Nc1nc(-c2sc(NC(C)=O)nc2C)cs1` [Example 66, N-[2-(2-Ethoxy-phenylamino)-4′-methyl-[4,5′]bithiazolyl-2′-yl]-acetamide] was tested, and the Kd [1] was > 6.1 µM, the IC50 [3] was 1.9 µM and the Kd [2] was > 6.1 µM.
With `COc1ccccc1Nc1nc(C2(C)CC3(CC(C)(C)OC3=O)C(=O)O2)cs1` (stereo not shown) [Example 69, 3-[2-(2-Methoxy-phenylamino)-thiazol-4-yl]-3,8,8-trimethyl-2,7-dioxa-spiro[4.4]nonane-1,6-dione] the Kd [1] was > 15 µM, the IC50 [3] was 11.2 µM and the Kd [2] was > 15 µM.
`CCOc1ccccc1Nc1nc(-c2cnc3ncccn23)cs1` [Example 71, (2-Ethoxy-phenyl)-(4-imidazo[1,2-a]pyrimidin-3-yl-thiazol-2-yl)-amine] gave a Kd [1] of 6.56 µM, an IC50 [3] of 6.9 µM and a Kd [2] of 11.7 µM.
In the case of “(5-Chloro-2-methoxy-phenyl)-(4-imidazo[1,2-a]pyrazin-3-yl-thiazol-2-yl)-amine [Example 72]”, the Kd [1] is reported as > 58 µM, the IC50 [3] is reported as 3.1 µM and the Kd [2] is reported as 6.53 µM.
